Reference: patent US20250263457A1, “Pharmaceutical Composition for Preventing and Treating Liver Disease Comprising Novel Peptide” (Pusan National University Industry-University Cooperation …, priority 2024, published 2025)

Tests used:
human pHSCs [1] = assay: Cell survival of human pHSCs by MTS assay; format: cell-based; conditions: 0, 20, 40, or 100 ng/ml; 24 and 48 hours; vs PBS control (FIG. 2B)
Procedure: 100 μl of human pHSCs (5×10^4 cells/ml) were seeded into 96 wells and cultured overnight. The cells were treated with peptide YJ at a concentration of 0, 20, 40, or 100 ng/ml and then further cultured. After 24 and 48 hours, cell survival for each cell was confirmed through MTS assay (Cell titer proliferation assay, G3580, Promega) (FIG. 2A). At this time, human pHSCs treated with PBS were used as a control group (vehicle).

human pHSCs [2] = assay: Western blot of HSC activation/inactivation markers in human pHSCs; format: cell-based; conditions: 40 ng/ml, vs control (FIG. 2C)
Procedure: To confirm the expression of cell activation markers, human pHSCs (5× 10^5 cells/ml) were treated with peptide YJ at a concentration of 20 or 40 ng/ml, and then proteins were extracted and subjected to Western blotting. At this time, as primary antibodies, anti-α-SMA antibody (Sigma-Aldrich, A5228), anti-GAPDH antibody (Bio-rad, MCA4739), anti-GFAP antibody (Dako, z0334), and anti-TFG-β antibody (Cell Signaling Technology, 3711) were used. In addition, as secondary antibodies, Goat anti-mouse IgG F(ab′) 2 antibody (HRP conjugate) (Enzo, ADI-SAB-100-J) and Goat anti-rabbit IgG antibody (HRP conjugate) (Enzo, ADI-SAB-300-J) were used.

[3] = test system: alcohol-related liver disease mouse model; assay: Liver size/weight and serum AST/ALT in alcohol-related liver disease mouse model; format: in vivo, C57BL/6 male mice
Procedure: (§1) To prepare alcohol-related liver disease mice, 8-week-old C57BL/6 male mice were fed with a Lieber DeCarli liquid diet (Dyets, 710260) containing 5% EtOH for 9 weeks, and then injected intraperitoneally with a vehicle (PBS) every other day along with feeding liquid diet for additional 3 weeks. As a control group for the EtOH diet, mice fed with a pair Lieber DeCarli liquid diet (Dyets, 710027) having the same total calories as the EtOH diet were used (FIG. 4A).
Specifically, 20 μl of mouse serum was mixed with 100 μl of a GOT buffer or GPT buffer, and then reacted at 37° C. Thereafter, the mixture was added with a 0.0198% 2,4-dinitrophenylhydrazine colorimetric solution (100 μl), and then further reacted at room temperature for 20 minutes. Thereafter, the mixture was added with 0.4 N NaOH (1 ml) to terminate the reaction, and absorbance (505 nm) was measured. The absorbance was expressed in international units per liter (IU/L).
(§2) The alcohol-related liver disease mouse model established by the method of Example 5.1 was administered vehicle (PBS) or peptide YJ (3.3 μg/kg) intraperitoneally every other day for three weeks, and then blood was collected and liver tissue was extracted to confirm the liver disease treatment effect of peptide YJ.
The weight and degree of tissue damage of the liver tissue extracted from the experimental mice of Example 5.3 were measured in the same manner as in Example 5.2.1.

[4] = test system: alcohol-related liver disease mouse model; assay: Inflammatory response (CD68, F4/80 immunohistochemistry) and alcohol metabolism/apoptosis markers (Western blot) in liver tissue of mouse model; format: in vivo, C57BL/6 male mice; conditions: 3.3 μg/kg i.p. every other day for three weeks, vs vehicle
Source text: as §1
Specifically, the liver tissue extracted from the mouse was fixed by treating 10% neutral buffered formalin, and then embedded using paraffin. The liver tissue paraffin block was cut into 4 μm-thick sections to produce tissue section slides. After deparaffinization and hydration processes of the tissue section slides, 3% hydrogen peroxide was treated to block endogenous peroxidase. Then, the section slides were treated with 10 mM sodium citrate buffer (pH 6.0) and heated for 10 minutes or treated with 0.2% pepsin to induce antigen retrieval. To inhibit non-specific binding of antibodies, blocking (Dako, X9090) was performed, and then the primary antibodies were treated and reacted overnight at 4° C. At this time, the primary antibodies used were anti-CD68 antibody (Abcam, ab125212) and anti-F4/80 antibody (Abcam, ab6640). The section slides were washed with TBST and then treated with secondary antibodies and reacted. The secondary antibodies used were EnVision+ Single Reagents (HRP, Rabbit) (Dako, K4003) and Goat anti-rat IgG-heavy and light chain antibodies (HRP conjugated) (BETHYL, A110-105P). Thereafter, the section slides were washed with TBST and treated with 3,3′-diaminobenzidine (DAB) (Dako, K3466) to develop the color. After the color development, the tissues of the section slides were dehydrated, mounted, fixed, and then observed under a microscope.
as §2
The degree of inflammatory response in the liver tissue extracted from the experimental mice of Example 5.3 was confirmed in the same manner as in Example 5.3.2.
In addition, the expression of alcohol metabolism markers and apoptosis marker proteins was confirmed through Western blot. Western blot was performed in the same manner as in Example 2. At this time, the primary antibodies used were anti-CYP2E1 antibody ([…], ab125212), anti-4HNE antibody (Abcam, ab46545), anti-cleaved caspase-3 antibody (Cell Signaling Technology, 9661s), anti-caspase-3 antibody (Cell Signaling Technology, 9662s), and anti-GADPH antibody.

CD44 = CD44 and CD44ICD expression in liver tissue of mouse model (IHC, Western blot); format: in vivo, C57BL/6 male mice; conditions: 3.3 μg/kg i.p. every other day for three weeks
Source text: as §1, §2
The expression of CD44 and CD44ICD in liver tissues extracted from the experimental mice of Example 5.3, or nuclear proteins or whole proteins (whole lysate) of liver tissues, was confirmed through immunohistochemical staining and Western blot. The immunohistochemical staining was performed using anti-CD44 antibody and anti-CD44ICD antibody by the method of Example 5.2.3, and Western blot was performed by the method of Examples 2 and 4.

[5] = 3.3 μg/kg i.p. every other day for three weeks, EtOH diet group, vs vehicle (FIG. 6C)
[6] = EtOH diet group, Western blot (FIG. 6F)
[7] = EtOH diet group, vs vehicle, Western blot (FIG. 8B)

peptide YJ: TSG-6 fragment: core domain RSGKYKLTYAEAKA plus C-terminal extension VCEFEGGHLATYKQLEAARKIGFHVCAAGWMAK (SEQ ID NO: 9); TSG-6 mimetic (RSGKYKLTYAEAKAVCEFEGGHLATYKQLEAARKIGFHVCAAGWMAK; peptide 4)
cell survival and proliferation (human pHSCs [1]): no changes in cell survival and proliferation were observed | expression of GFAP (inactivation marker) (human pHSCs [2]): increased | expression of activation markers of pHSCs (human pHSCs [2]): decreased | serum ALT level [3, 5]: decreased | serum AST level [3, 5]: decreased | size and weight of the liver tissue ([3]; 3.3 μg/kg intraperitoneally every other day for three weeks, between groups (FIGS. 6A, 6B)): did not show statistically significant differences | expression of CD68 in liver tissue ([4]; EtOH diet group, IHC (FIG. 6E)): significantly reduced | expression of F4/80 in liver tissue ([4]; EtOH diet group, IHC (FIG. 6E)): significantly reduced | expression of 4HNE in liver [4, 6]: did not show a significant difference | expression of CYP2E1 in liver [4, 6]: did not show a significant difference | expression of cleaved caspase-3 (apoptosis marker) in liver ([4]; Western blot (FIG. 6F)): decreased | expression of CD44ICD in whole lysate of liver tissue (CD44; [7]): reduced | expression of CD44 in whole lysate of liver tissue (CD44; [7]): reduced | expression of CD44ICD in nuclear protein of liver tissue (CD44; EtOH diet group, vs vehicle, Western blot (FIG. 8C)): significantly reduced | expression of CD44 in liver tissue (CD44; immunohistochemical staining (FIG. 8A)): decreased
